Measurements from patent publication US12679878B2, “CRF2 receptor agonists and their use in therapy” (SANOFI, priority 2020, dated 2026).
Starred links: 1 amine or outer side, 2 acyl side, 3 side chain; linkers in the order of their positions; H or OH if unused. Residues, ends and D or L forms follow the SMILES beside them. Groups on a side chain read outwards from the residue. No end group written: not given here. *: point of attachment. C18 diacid = O=C(O)CCCCCCCCCCCCCCCCC(=O)*; γGlu = O=C(O)[C@H](CCC(=O)[*:2])N[*:1]; Palmitoyl = CCCCCCCCCCCCCCCC(=O)*; AEEA = NCCOCCOCC(=O)O

B1: peptide of SEQ ID NO: 51 (peptide)
peptide: FTLSLDVPTKIK([AEEA-AEEA-γGlu-C18 diacid])QILLKQQKQKKERQQAEKNKQLLEQI-NH2
modifications: N-terminus assumed
SMILES: CC[C@H](C)[C@H](NC(=O)[C@H](CCC(N)=O)NC(=O)[C@H](CCC(=O)O)NC(=O)[C@H](CC(C)C)NC(=O)[C@H](CC(C)C)NC(=O)[C@H](CCC(N)=O)NC(=O)[C@H](CCCCN)NC(=O)[C@H](CC(N)=O)NC(=O)[C@H](CCCCN)NC(=O)[C@H](CCC(=O)O)NC(=O)[C@H](C)NC(=O)[C@H](CCC(N)=O)NC(=O)[C@H](CCC(N)=O)NC(=O)[C@H](CCCNC(=N)N)NC(=O)[C@H](CCC(=O)O)NC(=O)[C@H](CCCCN)NC(=O)[C@H](CCCCN)NC(=O)[C@H](CCC(N)=O)NC(=O)[C@H](CCCCN)NC(=O)[C@H](CCC(N)=O)NC(=O)[C@H](CCC(N)=O)NC(=O)[C@H](CCCCN)NC(=O)[C@H](CC(C)C)NC(=O)[C@H](CC(C)C)NC(=O)[C@@H](NC(=O)[C@H](CCC(N)=O)NC(=O)[C@H](CCCCNC(=O)COCCOCCNC(=O)COCCOCCNC(=O)CC[C@H](NC(=O)CCCCCCCCCCCCCCCCC(=O)O)C(=O)O)NC(=O)[C@@H](NC(=O)[C@H](CCCCN)NC(=O)[C@@H](NC(=O)[C@@H]1CCCN1C(=O)[C@@H](NC(=O)[C@H](CC(=O)O)NC(=O)[C@H](CC(C)C)NC(=O)[C@H](CO)NC(=O)[C@H](CC(C)C)NC(=O)[C@@H](NC(=O)[C@@H](N)Cc1ccccc1)[C@@H](C)O)C(C)C)[C@@H](C)O)[C@@H](C)CC)[C@@H](C)CC)C(N)=O
B2: peptide of SEQ ID NO: 17 (peptide)
peptide: IVLSLDVPIKLK([γGlu-Palmitoyl])KILLEQEKQKKQREQAETNKQILAQV-NH2
modifications: N-terminus assumed
SMILES: CCCCCCCCCCCCCCCC(=O)N[C@@H](CCC(=O)NCCCC[C@H](NC(=O)[C@H](CC(C)C)NC(=O)[C@H](CCCCN)NC(=O)[C@@H](NC(=O)[C@@H]1CCCN1C(=O)[C@@H](NC(=O)[C@H](CC(=O)O)NC(=O)[C@H](CC(C)C)NC(=O)[C@H](CO)NC(=O)[C@H](CC(C)C)NC(=O)[C@@H](NC(=O)[C@@H](N)[C@@H](C)CC)C(C)C)C(C)C)[C@@H](C)CC)C(=O)N[C@@H](CCCCN)C(=O)N[C@H](C(=O)N[C@@H](CC(C)C)C(=O)N[C@@H](CC(C)C)C(=O)N[C@@H](CCC(=O)O)C(=O)N[C@@H](CCC(N)=O)C(=O)N[C@@H](CCC(=O)O)C(=O)N[C@@H](CCCCN)C(=O)N[C@@H](CCC(N)=O)C(=O)N[C@@H](CCCCN)C(=O)N[C@@H](CCCCN)C(=O)N[C@@H](CCC(N)=O)C(=O)N[C@@H](CCCNC(=N)N)C(=O)N[C@@H](CCC(=O)O)C(=O)N[C@@H](CCC(N)=O)C(=O)N[C@@H](C)C(=O)N[C@@H](CCC(=O)O)C(=O)N[C@H](C(=O)N[C@@H](CC(N)=O)C(=O)N[C@@H](CCCCN)C(=O)N[C@@H](CCC(N)=O)C(=O)N[C@H](C(=O)N[C@@H](CC(C)C)C(=O)N[C@@H](C)C(=O)N[C@@H](CCC(N)=O)C(=O)N[C@H](C(N)=O)C(C)C)[C@@H](C)CC)[C@@H](C)O)[C@@H](C)CC)C(=O)O

How the values were obtained:
[1] = Effect on blood pressure, telemetry (Example 17); format: in vivo; settings: Sprague Dawley rats, 0.1 mg/kg SC
Description: The effect of the compounds on blood pressure was determined in telemetry studies in Sprague Dawley rats at a dosage of 0.1 mg/kg SC.
The rats were previously implanted with a telemetry device (DSI, Saint-Paul, USA, HD-S10, HD-S11 or HD S21) and allowed to recover for a minimum period of 2 weeks before treatment with vehicle or the different peptides. Blood pressure (BP) was recorded through a catheter inserted into the abdominal aorta. The device body was placed in the abdomen. At the end of surgery, animals were placed in individual cages until the end of the study.
Pressure signals were recorded for one hour before the treatment (basal period). Thereafter, the subcutaneous administration of the test compound or its vehicle was performed, under continuous recording of the signal over a 48-hour period. Data acquisition was performed using Hem 4.3 acquisition software (Notocord®, Le Pecq, France) connected to the telemetry device. Hemodynamic parameters were recorded during a […] before treatment and every 4-hour period following subcutaneous administration over 48 hours.
Investigated parameters (calculated from BP signal) were Heart Rate (HR) in beats per minute (bpm), Diastolic and Systolic Blood Pressure (DBP) in mmHg, and Mean Blood Pressure (MBP) in mmHg.
Data from Hem were manipulated using Microsoft Excel®. For each parameter, a basal value was determined as the average calculated over a 1-hour period during the pre-treatment sequence, and the values post treatment were calculated over 4-hour periods ([0-4], [4-8], [8-12], [12-16], [16-20], [20-24], [24-28], [32-36], [36-40], [40-44] and [44-48] hours) covering the 48-hour period following administration.
Representative data are presented in Table 15 below, in which “n” represents the number of animals for which individual values were obtained and “Duration” indicates the last time point for which a significant effect on BP was still seen: Table 15

[2] = Effect on body mass, body fat content and food intake in high-fat diet fed (DIO) mice (Example 18); format: in vivo, C57BL/6N Crl mice
Description: The peptide of SEQ ID NO: 35 was assessed for its ability to reduce body mass and body fat content in mice. Its efficacy was compared with that of a reference compound, namely the compound of Example 4 of WO2018013803 (Alsina-Fernandez; Eli Lilly and Company), referred to herein as “Compound A”.
Female C57BL/6N Crl mice were group housed under vivarium conditions that included a 12 h light/dark cycle and a room temperature of 23±1° C. All animals had free access to water and diet (Ssniff adjusted high fat diet: TD.97366, Soest, Germany) for 18 weeks prior to pharmacological intervention (dosing phase). After the pre-feeding period, mice were single housed and randomized according to body weight to treatment groups with n=8, so that each group has similar mean body weight. At the start of the study, mice were between 25-26 weeks old with body weight of 42-50 g. Mice were treated every second day during late afternoon hours prior lights off with a subcutaneous injection of 8 nmol/kg of the test compounds or their vehicle (phosphate-buffered saline (PBS). Body weight and food intake were measured daily throughout the dosing phase while body fat content was measured at day 0 prior to the start of treatment and at day 15. The study was terminated on day 15.
For statistical analyses a One-Way Analysis of Variance (ANOVA) was performed with SigmaStat 3.5. The test was performed with a risk alpha of 0.050 and a comparison versus the high fat diet-Vehicle group was performed with Dunnett's tests.

rat CRF2R α receptor = rat CRF2R α receptor (rat, UniProt P47866 20-411); experiment: cell-based or functional assay
[3] = target: T1, anti-target CRF1R receptor (UniProt P34998 24-415, limits assumed); experiment: cell-based or functional assay
T1 sequence (looked up): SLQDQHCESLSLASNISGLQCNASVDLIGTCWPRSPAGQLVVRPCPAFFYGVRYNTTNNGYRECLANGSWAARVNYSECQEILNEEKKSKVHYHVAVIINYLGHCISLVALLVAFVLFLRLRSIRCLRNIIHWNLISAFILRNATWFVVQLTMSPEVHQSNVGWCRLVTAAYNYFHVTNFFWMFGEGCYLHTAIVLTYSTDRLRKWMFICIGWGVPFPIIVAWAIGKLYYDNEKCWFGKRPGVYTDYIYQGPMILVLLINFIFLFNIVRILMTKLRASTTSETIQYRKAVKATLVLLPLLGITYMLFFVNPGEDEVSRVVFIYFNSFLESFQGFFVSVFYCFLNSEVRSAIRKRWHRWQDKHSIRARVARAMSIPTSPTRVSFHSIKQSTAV

[4] = target: T2, recombinant human CRF2 (HEK cell membranes) (human, UniProt Q13324 1-411); experiment: Hill coefficient of the competition curve against [125]sauvagine, HEK membranes with recombinant human CRF2
T2 construct: Whole receptor in membranes prepared from HEK cells; also called CRF2a (h); CRF2 receptor
T2 sequence (looked up): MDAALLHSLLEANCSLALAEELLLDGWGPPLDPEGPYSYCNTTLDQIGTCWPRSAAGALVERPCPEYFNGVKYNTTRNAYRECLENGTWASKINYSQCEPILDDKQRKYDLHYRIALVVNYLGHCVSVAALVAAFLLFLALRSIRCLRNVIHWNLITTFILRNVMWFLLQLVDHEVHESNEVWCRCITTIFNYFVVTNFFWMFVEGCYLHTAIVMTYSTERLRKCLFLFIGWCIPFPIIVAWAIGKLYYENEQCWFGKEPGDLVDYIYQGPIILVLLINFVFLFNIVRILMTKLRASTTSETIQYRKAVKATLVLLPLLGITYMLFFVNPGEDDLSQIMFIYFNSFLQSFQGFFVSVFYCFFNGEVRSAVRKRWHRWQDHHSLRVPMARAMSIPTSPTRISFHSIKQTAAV
Description: (§1) HEK cells expressing recombinant human CRF2 were used as a source of receptor for membrane preparation.
(§2) IC50 values (concentration causing a half-maximal inhibition of control specific binding) and Hill coefficients (nH) were determined by non-linear regression analysis of the competition curves generated with mean replicate values using Hill equation curve fitting. The inhibition constants (Ki) were calculated using the Cheng Prusoff equation [Ki=IC50/(1+L/KD) where L is the concentration of radioligand in the assay, and KD is the affinity of the radioligand for the receptor). A Scatchard plot was used to determine the KD.

[5] = target: T2, recombinant human CRF2 (HEK cell …); experiment: radioligand competition against [125]sauvagine (0.1 nM), HEK membranes with recombinant human CRF2; Cheng Prusoff
Description: as §1, §2

Molecule	Duration (h): last time point for which a significant effect on BP was still seen [1] [h]	Effect on Systolic Pressure % change from baseline 8 h ([1]; 8 h) [%]	Effect on Systolic Pressure % change from baseline 24 h ([1]; 24 h) [%]	cumulative food intake over 15 days ([2]; 8 nmol/kg s.c. every second day) [g]	lean mass change ([2]; 8 nmol/kg s.c. every second day, 15 days) [%]	relative body weight change ([2]; 8 nmol/kg s.c. every second day, 15 days, mean±SEM) [%]	reduction in body fat content ([2]; 8 nmol/kg s.c. every second day, day 15 vs day 0) [%]	food intake after first administration ([2]; 8 nmol/kg s.c., normalized after second treatment (FIG. 1))	EC50 [nM], 0% HSA (cAMP, A7R5 cells) (rat CRF2R α receptor) [nM]	EC50[nM] 0% HSA (cAMP, CRF1R-overexpression CHO cells) [3] [nM]	Emax (%) (cAMP, CRF1R-overexpression CHO cells) [3]	nH [4]	Ki [5] [nM]
CC[C@H](C)[C@H](N)C(=O)N[C@H](C(=O)N[C@@H](CC(C)C)C(=O)N[C@@H](CO)C(=O)N[C@@H](CC(C)C)C(=O)N[C@@H](CC(=O)O)C(=O)N[C@H](C(=O)N1CCC[C@H]1C(=O)N[C@H](C(=O)N[C@@H](CCCCN)C(=O)N[C@@H](CC(C)C)C(=O)N[C@@H](CCCCNC(=O)COCCOCCNC(=O)COCCOCCNC(=O)CC[C@H](NC(=O)CCCCCCCCCCCCCCCCC(=O)O)C(=O)O)C(=O)N[C@@H](CCCCN)C(=O)N[C@H](C(=O)N[C@@H](CC(C)C)C(=O)N[C@@H](CC(C)C)C(=O)N[C@@H](CCC(=O)O)C(=O)N[C@@H](CCC(N)=O)C(=O)N[C@@H](CCC(=O)O)C(=O)N[C@@H](CCCCN)C(=O)N[C@@H](CCC(N)=O)C(=O)N[C@@H](CCCCN)C(=O)N[C@@H](CCCCN)C(=O)N[C@@H](CCC(N)=O)C(=O)N[C@@H](CCCNC(=N)N)C(=O)N[C@@H](CCC(=O)O)C(=O)N[C@@H](CCC(N)=O)C(=O)N[C@@H](C)C(=O)N[C@@H](CCC(=O)O)C(=O)N[C@H](C(=O)N[C@@H](CC(N)=O)C(=O)N[C@@H](CCCCN)C(=O)N[C@@H](CCC(N)=O)C(=O)N[C@H](C(=O)N[C@@H](CC(C)C)C(=O)N[C@@H](C)C(=O)N[C@@H](CCC(N)=O)C(=O)N[C@H](C(N)=O)C(C)C)[C@@H](C)CC)[C@@H](C)O)[C@@H](C)CC)[C@@H](C)CC)C(C)C)C(C)C [SEQ ID NO: 35] (H-IVLSLDVPIKLK([AEEA-AEEA-γGlu-C18 diacid])KILLEQEKQKKQREQAETNKQILAQV-NH2)	30	−14.1	−5.0	39.3 ± 2.5	−6.3±1.7	−10.8±1.4	−34.2±2.9	meaningful reduction of food intake	–	–	–	–	–
B1	–	–	–	–	–	–	–	–	0.87	> 1000	3.38	0.8	–
B2	–	–	–	–	–	–	–	–	–	–	–	1.5	4.4
